# Read-outs that look alike come from different tables or passages of the source.
# Legend:
# Experiment in all cases: Kinase profile (33P ATP filter binding)
# Type in all cases: biochemical
# TGFBR1 = biological target: T1, TGFBR1 (Homo sapiens, UniProt P36897); conditions: read-out: Remaining protein kinase activity
# T1 sequence (P36897 34-503): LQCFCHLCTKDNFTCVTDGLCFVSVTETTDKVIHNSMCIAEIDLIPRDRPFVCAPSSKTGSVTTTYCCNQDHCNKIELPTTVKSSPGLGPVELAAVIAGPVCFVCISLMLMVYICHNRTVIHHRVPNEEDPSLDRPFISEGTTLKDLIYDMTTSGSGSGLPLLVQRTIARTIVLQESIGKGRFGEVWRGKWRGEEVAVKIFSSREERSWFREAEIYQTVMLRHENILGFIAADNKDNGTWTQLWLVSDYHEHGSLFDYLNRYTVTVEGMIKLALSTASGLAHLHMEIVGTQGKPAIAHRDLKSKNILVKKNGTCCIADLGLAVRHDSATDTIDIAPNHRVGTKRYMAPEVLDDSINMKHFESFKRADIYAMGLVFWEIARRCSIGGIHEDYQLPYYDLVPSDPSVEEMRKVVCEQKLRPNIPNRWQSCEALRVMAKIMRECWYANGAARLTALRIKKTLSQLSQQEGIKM
# p38a MAPK = p38a MAPK (Homo sapiens, UniProt Q16539)
# p38a MAPK, sequence (Q16539 whole entry): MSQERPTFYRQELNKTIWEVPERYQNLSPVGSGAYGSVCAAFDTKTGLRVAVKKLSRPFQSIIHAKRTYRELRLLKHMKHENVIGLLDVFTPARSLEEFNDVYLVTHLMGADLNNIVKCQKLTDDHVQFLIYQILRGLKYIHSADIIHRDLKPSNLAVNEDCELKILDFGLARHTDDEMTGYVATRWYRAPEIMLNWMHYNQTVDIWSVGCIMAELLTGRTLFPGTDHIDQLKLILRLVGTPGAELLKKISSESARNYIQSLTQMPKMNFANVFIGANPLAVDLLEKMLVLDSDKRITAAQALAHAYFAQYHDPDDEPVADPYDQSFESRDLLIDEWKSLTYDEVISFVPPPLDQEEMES
# ZAP70 = biological target: T2, ZAP70 (Homo sapiens, UniProt P43403); conditions: read-out: Remaining protein kinase activity
# T2 sequence (P43403 1-619): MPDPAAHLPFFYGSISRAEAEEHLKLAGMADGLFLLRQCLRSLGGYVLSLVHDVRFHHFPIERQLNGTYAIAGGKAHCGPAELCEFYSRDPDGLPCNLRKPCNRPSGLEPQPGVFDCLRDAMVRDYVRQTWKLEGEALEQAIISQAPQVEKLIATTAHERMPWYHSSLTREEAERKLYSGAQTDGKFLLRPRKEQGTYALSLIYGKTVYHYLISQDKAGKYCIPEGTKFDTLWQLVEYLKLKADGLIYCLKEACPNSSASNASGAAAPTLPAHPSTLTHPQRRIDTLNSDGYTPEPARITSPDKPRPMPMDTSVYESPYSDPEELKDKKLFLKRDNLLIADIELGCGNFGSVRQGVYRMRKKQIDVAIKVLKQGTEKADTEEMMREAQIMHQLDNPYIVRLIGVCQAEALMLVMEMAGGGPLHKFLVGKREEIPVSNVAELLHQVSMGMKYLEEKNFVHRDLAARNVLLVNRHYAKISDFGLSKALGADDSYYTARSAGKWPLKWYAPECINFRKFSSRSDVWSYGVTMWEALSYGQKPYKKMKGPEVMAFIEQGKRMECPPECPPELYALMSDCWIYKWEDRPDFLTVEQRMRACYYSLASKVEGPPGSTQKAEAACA
# PDGFRA = PDGFRA (Homo sapiens, UniProt P16234); conditions: read-out: Remaining protein kinase activity
# PDGFRA, sequence (P16234 24-1089): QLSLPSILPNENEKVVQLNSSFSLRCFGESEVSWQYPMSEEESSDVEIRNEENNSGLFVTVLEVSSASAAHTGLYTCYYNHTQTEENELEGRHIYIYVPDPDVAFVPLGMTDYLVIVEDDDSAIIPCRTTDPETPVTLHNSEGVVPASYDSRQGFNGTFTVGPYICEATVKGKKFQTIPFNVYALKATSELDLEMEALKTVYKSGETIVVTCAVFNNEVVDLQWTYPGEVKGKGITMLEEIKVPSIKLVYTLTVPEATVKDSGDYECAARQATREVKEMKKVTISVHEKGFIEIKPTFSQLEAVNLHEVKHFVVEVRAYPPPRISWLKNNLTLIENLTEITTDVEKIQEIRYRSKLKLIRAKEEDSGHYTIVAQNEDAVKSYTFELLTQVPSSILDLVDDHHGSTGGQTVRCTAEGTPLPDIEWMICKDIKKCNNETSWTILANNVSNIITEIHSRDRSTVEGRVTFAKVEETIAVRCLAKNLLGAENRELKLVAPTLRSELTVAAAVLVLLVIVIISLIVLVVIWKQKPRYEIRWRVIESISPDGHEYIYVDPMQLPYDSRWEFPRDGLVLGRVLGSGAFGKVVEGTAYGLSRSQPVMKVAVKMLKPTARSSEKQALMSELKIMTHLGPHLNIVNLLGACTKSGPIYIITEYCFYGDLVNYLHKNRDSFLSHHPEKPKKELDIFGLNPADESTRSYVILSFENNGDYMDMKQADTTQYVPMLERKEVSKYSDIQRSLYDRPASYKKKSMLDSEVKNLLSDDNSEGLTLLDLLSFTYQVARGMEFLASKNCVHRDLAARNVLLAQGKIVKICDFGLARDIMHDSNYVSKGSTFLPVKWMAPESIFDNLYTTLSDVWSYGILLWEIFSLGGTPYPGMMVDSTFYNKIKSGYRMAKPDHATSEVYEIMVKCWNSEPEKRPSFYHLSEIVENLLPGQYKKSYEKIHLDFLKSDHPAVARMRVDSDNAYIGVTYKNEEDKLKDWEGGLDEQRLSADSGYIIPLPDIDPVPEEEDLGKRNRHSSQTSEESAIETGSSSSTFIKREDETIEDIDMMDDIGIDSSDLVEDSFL
# TLK1 = biological target: T3, TLK1 (Homo sapiens, UniProt Q9UKI8); conditions: read-out: Remaining protein kinase activity
# T3 sequence (Q9UKI8 1-766): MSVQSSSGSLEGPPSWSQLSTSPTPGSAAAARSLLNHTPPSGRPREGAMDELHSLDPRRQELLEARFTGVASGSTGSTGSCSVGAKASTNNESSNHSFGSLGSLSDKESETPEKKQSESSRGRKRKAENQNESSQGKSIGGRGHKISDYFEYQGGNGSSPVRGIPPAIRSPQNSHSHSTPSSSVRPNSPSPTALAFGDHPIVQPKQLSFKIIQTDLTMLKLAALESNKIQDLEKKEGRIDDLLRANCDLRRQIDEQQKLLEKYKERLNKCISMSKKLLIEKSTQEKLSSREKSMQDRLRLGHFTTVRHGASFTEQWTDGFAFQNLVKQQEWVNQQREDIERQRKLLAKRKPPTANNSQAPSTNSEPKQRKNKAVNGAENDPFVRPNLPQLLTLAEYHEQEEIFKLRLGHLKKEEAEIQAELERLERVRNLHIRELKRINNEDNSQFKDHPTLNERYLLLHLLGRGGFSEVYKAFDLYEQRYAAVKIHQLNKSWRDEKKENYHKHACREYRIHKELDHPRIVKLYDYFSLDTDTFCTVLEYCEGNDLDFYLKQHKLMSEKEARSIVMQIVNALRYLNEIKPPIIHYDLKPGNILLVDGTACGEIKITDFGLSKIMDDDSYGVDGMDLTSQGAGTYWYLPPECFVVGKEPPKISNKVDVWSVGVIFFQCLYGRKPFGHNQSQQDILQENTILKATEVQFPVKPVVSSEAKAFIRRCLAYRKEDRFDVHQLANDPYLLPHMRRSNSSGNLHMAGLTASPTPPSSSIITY
# IRAK1 = IRAK1 (Homo sapiens, UniProt P51617); conditions: read-out: Remaining protein kinase activity
# IRAK1, sequence (P51617 whole entry): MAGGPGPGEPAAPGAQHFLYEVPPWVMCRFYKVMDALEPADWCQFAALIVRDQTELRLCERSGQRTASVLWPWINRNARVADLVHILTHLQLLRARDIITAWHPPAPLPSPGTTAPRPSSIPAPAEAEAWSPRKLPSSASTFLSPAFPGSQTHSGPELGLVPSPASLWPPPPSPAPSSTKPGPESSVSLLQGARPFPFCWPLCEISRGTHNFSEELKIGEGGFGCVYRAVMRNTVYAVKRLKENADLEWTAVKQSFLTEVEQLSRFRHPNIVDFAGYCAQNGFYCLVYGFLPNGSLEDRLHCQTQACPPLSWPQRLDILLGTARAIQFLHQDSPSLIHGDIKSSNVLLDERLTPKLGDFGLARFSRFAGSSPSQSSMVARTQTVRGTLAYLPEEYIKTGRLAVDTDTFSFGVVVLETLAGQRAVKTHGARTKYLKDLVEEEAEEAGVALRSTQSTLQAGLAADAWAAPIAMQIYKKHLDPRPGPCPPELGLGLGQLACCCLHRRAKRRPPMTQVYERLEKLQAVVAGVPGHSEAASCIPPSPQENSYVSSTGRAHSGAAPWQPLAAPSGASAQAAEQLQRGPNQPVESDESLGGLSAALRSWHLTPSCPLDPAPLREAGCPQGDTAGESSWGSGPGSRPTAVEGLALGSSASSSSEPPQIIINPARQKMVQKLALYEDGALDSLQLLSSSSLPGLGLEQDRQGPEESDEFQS
smiles,measurement,setting,value
"COc1ccc2sc(-c3cncc(N)c3)nc2c1 [compound 1, 5-(5-Methoxybenzo[d]thiazol-2-yl)pyridin-3-amine]",remaining activity at 1 µM,"TGFBR1; TGFBR1, 1 μM",105%
same,remaining activity at 100 µM,"TGFBR1; TGFBR1, 100 μM",118%
same,Remaining protein kinase activity,p38a MAPK; 1 μM,103%
same,Remaining protein kinase activity,p38a MAPK; 100 μM,96%
same,remaining activity at 1 µM,"ZAP70; ZAP70, 1 μM",119%
same,remaining activity at 100 µM,"ZAP70; ZAP70, 100 μM",63%
same,remaining activity at 1 µM,"PDGFRA; PDGFRA, 1 μM",101%
same,remaining activity at 100 µM,"PDGFRA; PDGFRA, 100 μM",26%
same,remaining activity at 1 µM,"TLK1; TLK1, 1 μM",131%
same,remaining activity at 100 µM,"TLK1; TLK1, 100 μM",115%
same,remaining activity at 1 µM,"IRAK1; IRAK1, 1 μM",95%
same,remaining activity at 100 µM,"IRAK1; IRAK1, 100 μM",24%
"COc1ccc2sc(-c3cncc(NC(C)=O)c3)nc2c1 [PST-001, N-(5-(5-Methoxybenzo[d]thiazol-2-yl)pyridin-3-yl)acetamide]",remaining activity at 1 µM,TGFBR1,112%
same,remaining activity at 100 µM,TGFBR1,129%
same,Remaining protein kinase activity,p38a MAPK; 1 μM,110%
same,Remaining protein kinase activity,p38a MAPK; 100 μM,106%
same,remaining activity at 1 µM,ZAP70,123%
same,remaining activity at 100 µM,ZAP70,131%
same,remaining activity at 1 µM,PDGFRA,100%
same,remaining activity at 100 µM,PDGFRA,73%
same,remaining activity at 1 µM,TLK1,129%
same,remaining activity at 100 µM,TLK1,134%
same,remaining activity at 1 µM,IRAK1,103%
same,remaining activity at 100 µM,IRAK1,93%

# — PMC8617627, “Novel DYRK1A Inhibitor Rescues Learning and Memory Deficits in a Mouse Model of Down Syndrome” (Pharmaceuticals, 2021)
